#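 Interpolation was linear, between the two tested concentrations surrounding the appropriate level; five concentrations were tested over 48 hours in 96-well plates. GI50 = concentration required for 50% inhibition of growth. At the TGI there is no net growth.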
# Tests used:
# Test in all cases: DTP human tumour cell line panel, 48 h
# K-562 leukemia = tested on: K-562 leukemia
# HS 578T breast = tested on: HS 578T breast
# RXF 393 renal = tested on: RXF 393 renal
# SK-OV-3 ovarian = tested on: SK-OV-3 ovarian
# NCI/ADR-RES ovarian = tested on: NCI/ADR-RES ovarian
# MDA-MB-435 = tested on: MDA-MB-435
# NCI-H522 lung = tested on: NCI-H522 lung
# SF-268 CNS = tested on: SF-268 CNS
# MOLT-4 leukemia = tested on: MOLT-4 leukemia
# HT29 colon = tested on: HT29 colon
# SW-620 colon = tested on: SW-620 colon
# A498 renal = tested on: A498 renal
# ACHN renal = tested on: ACHN renal
# HL-60(TB) leukemia = tested on: HL-60(TB) leukemia
# UACC-62 melanoma = tested on: UACC-62 melanoma
# CAKI-1 renal = tested on: CAKI-1 renal
# HCT-116 colon = tested on: HCT-116 colon
# COLO 205 colon = tested on: COLO 205 colon
# HOP-62 NSCLC = tested on: HOP-62 NSCLC
# OVCAR-5 ovarian = tested on: OVCAR-5 ovarian
# SK-MEL-28 melanoma = tested on: SK-MEL-28 melanoma
# BT-549 breast = tested on: BT-549 breast
# IGROV1 ovarian = tested on: IGROV1 ovarian
# A549 NSCLC = tested on: A549 NSCLC
# MALME-3M melanoma = tested on: MALME-3M melanoma
# HCT-15 colon = tested on: HCT-15 colon
# TK-10 renal = tested on: TK-10 renal
# SF-539 CNS = tested on: SF-539 CNS
# 786-0 renal = tested on: 786-0 renal
# T-47D breast = tested on: T-47D breast
# DU-145 prostate = tested on: DU-145 prostate
# SR leukemia = tested on: SR leukemia
# OVCAR-8 ovarian = tested on: OVCAR-8 ovarian
# SF-295 CNS = tested on: SF-295 CNS
# NCI-H460 lung = tested on: NCI-H460 lung
# KM12 colon = tested on: KM12 colon
# HCC-2998 colon = tested on: HCC-2998 colon
# NCI-H226 lung = tested on: NCI-H226 lung
# RPMI-8226 leukemia = tested on: RPMI-8226 leukemia
# U251 CNS = tested on: U251 CNS
# SN12C renal = tested on: SN12C renal
# UACC-257 melanoma = tested on: UACC-257 melanoma
# UO-31 renal = tested on: UO-31 renal
# OVCAR-4 ovarian = tested on: OVCAR-4 ovarian
# OVCAR-3 ovarian = tested on: OVCAR-3 ovarian
# SNB-19 CNS = tested on: SNB-19 CNS
# MDA-MB-231 breast = tested on: MDA-MB-231 breast
# SNB-75 CNS = tested on: SNB-75 CNS
# M14 melanoma = tested on: M14 melanoma
# SK-MEL-5 melanoma = tested on: SK-MEL-5 melanoma
# MCF7 breast = tested on: MCF7 breast
# PC-3 prostate = tested on: PC-3 prostate
# CCRF-CEM leukemia = tested on: CCRF-CEM leukemia
# NCI-H23 lung = tested on: NCI-H23 lung
structure (smiles),measurement,setting,value
COc1ccc(CCc2nc3cc(-c4c(C)noc4C)ccc3n2CCN2CCOCC2)cc1,GI50,K-562 leukemia,19.9 µM
same,TGI,K-562 leukemia,> 100 µM
same,GI50,HS 578T breast,9.16 µM
same,TGI,HS 578T breast,> 100 µM
same,GI50,RXF 393 renal,18.7 µM
same,TGI,RXF 393 renal,82.4 µM
same,GI50,SK-OV-3 ovarian,26 µM
same,TGI,SK-OV-3 ovarian,> 100 µM
same,GI50,NCI/ADR-RES ovarian,27.9 µM
same,TGI,NCI/ADR-RES ovarian,> 100 µM
same,GI50,MDA-MB-435,14.9 µM
same,TGI,MDA-MB-435,> 100 µM
same,GI50,NCI-H522 lung,12.4 µM
same,TGI,NCI-H522 lung,69.4 µM
same,GI50,SF-268 CNS,41.6 µM
same,TGI,SF-268 CNS,> 100 µM
same,GI50,MOLT-4 leukemia,34.5 µM
same,TGI,MOLT-4 leukemia,> 100 µM
same,GI50,HT29 colon,13.7 µM
same,TGI,HT29 colon,> 100 µM
same,GI50,SW-620 colon,58.1 µM
same,TGI,SW-620 colon,> 100 µM
same,GI50,A498 renal,10.1 µM
same,TGI,A498 renal,32.8 µM
same,GI50,ACHN renal,25.9 µM
same,TGI,ACHN renal,> 100 µM
same,GI50,HL-60(TB) leukemia,10.4 µM
same,TGI,HL-60(TB) leukemia,> 100 µM
same,GI50,UACC-62 melanoma,11.1 µM
same,TGI,UACC-62 melanoma,> 100 µM
same,GI50,CAKI-1 renal,7.94 µM
same,TGI,CAKI-1 renal,> 100 µM
same,GI50,HCT-116 colon,29.4 µM
same,TGI,HCT-116 colon,> 100 µM
same,GI50,COLO 205 colon,12.7 µM
same,TGI,COLO 205 colon,> 100 µM
same,GI50,HOP-62 NSCLC,44.6 µM
same,TGI,HOP-62 NSCLC,> 100 µM
same,GI50,OVCAR-5 ovarian,71.8 µM
same,TGI,OVCAR-5 ovarian,> 100 µM
same,GI50,SK-MEL-28 melanoma,39.5 µM
same,TGI,SK-MEL-28 melanoma,> 100 µM
same,GI50,BT-549 breast,40.5 µM
same,TGI,BT-549 breast,> 100 µM
same,GI50,IGROV1 ovarian,22.9 µM
same,TGI,IGROV1 ovarian,> 100 µM
same,GI50,A549 NSCLC,45 µM
same,TGI,A549 NSCLC,> 100 µM
same,GI50,MALME-3M melanoma,6.64 µM
same,TGI,MALME-3M melanoma,> 100 µM
same,GI50,HCT-15 colon,12.5 µM
same,TGI,HCT-15 colon,> 100 µM
same,GI50,TK-10 renal,10.1 µM
same,TGI,TK-10 renal,> 100 µM
same,GI50,SF-539 CNS,34.6 µM
same,TGI,SF-539 CNS,> 100 µM
same,GI50,786-0 renal,24.4 µM
same,TGI,786-0 renal,> 100 µM
same,GI50,T-47D breast,16.1 µM
same,TGI,T-47D breast,> 100 µM
same,GI50,DU-145 prostate,86.2 µM
same,TGI,DU-145 prostate,> 100 µM
same,GI50,SR leukemia,7.01 µM
same,TGI,SR leukemia,> 100 µM
same,GI50,OVCAR-8 ovarian,35.9 µM
same,TGI,OVCAR-8 ovarian,> 100 µM
same,GI50,SF-295 CNS,23 µM
same,TGI,SF-295 CNS,> 100 µM
same,GI50,NCI-H460 lung,65.1 µM
same,TGI,NCI-H460 lung,> 100 µM
same,GI50,KM12 colon,17.5 µM
same,TGI,KM12 colon,> 100 µM
same,GI50,HCC-2998 colon,19.9 µM
same,TGI,HCC-2998 colon,97.5 µM
same,GI50,NCI-H226 lung,31.1 µM
same,TGI,NCI-H226 lung,> 100 µM
same,GI50,RPMI-8226 leukemia,6.12 µM
same,TGI,RPMI-8226 leukemia,49.4 µM
same,GI50,U251 CNS,38.7 µM
same,TGI,U251 CNS,> 100 µM
same,GI50,SN12C renal,34.9 µM
same,TGI,SN12C renal,> 100 µM
same,GI50,UACC-257 melanoma,13.6 µM
same,TGI,UACC-257 melanoma,> 100 µM
same,GI50,UO-31 renal,2.49 µM
same,TGI,UO-31 renal,> 100 µM
same,GI50,OVCAR-4 ovarian,5.28 µM
same,TGI,OVCAR-4 ovarian,> 100 µM
same,GI50,OVCAR-3 ovarian,20.3 µM
same,TGI,OVCAR-3 ovarian,59.8 µM
same,GI50,SNB-19 CNS,35.5 µM
same,TGI,SNB-19 CNS,> 100 µM
same,GI50,MDA-MB-231 breast,28.6 µM
same,TGI,MDA-MB-231 breast,> 100 µM
same,GI50,SNB-75 CNS,2.47 µM
same,TGI,SNB-75 CNS,> 100 µM
same,GI50,M14 melanoma,21.6 µM
same,TGI,M14 melanoma,> 100 µM
same,GI50,SK-MEL-5 melanoma,13.4 µM
same,TGI,SK-MEL-5 melanoma,43.8 µM
same,GI50,MCF7 breast,4.32 µM
same,TGI,MCF7 breast,> 100 µM
same,GI50,PC-3 prostate,16.3 µM
same,TGI,PC-3 prostate,> 100 µM
same,GI50,CCRF-CEM leukemia,26.9 µM
same,TGI,CCRF-CEM leukemia,> 100 µM
same,GI50,NCI-H23 lung,45.3 µM
same,TGI,NCI-H23 lung,> 100 µM
